Data on three molecules can be found in paper PMC11435438, “Cyclin-Dependent Kinase 8 Represents a Positive Regulator of Cytomegalovirus Replication and a Novel Host Target for Antiviral Strategies” (Pharmaceutics, 2024).

The EC50 is the concentration that produces a half-maximal response.

The subject of data set [1] is HCMV AD169-GFP. Details: method as in PMID 35269635. The settings on record: GFP-based replication assay in HFFs, mean ± SD; cited from earlier work.
In the next data set the test system is mock-infected HFFs. The settings on record: cited from earlier work.
In data set [2] the test system is HCMV AD169-GFP. The experiment in a line: microbe, parasite or virus in culture. The format is cell-based, human cytomegalovirus. The settings on record: ratio CC50/EC50; HCMV AD169-GFP, HFFs. The method, then:
(i.e., 1 × TCID25/7d). Immediately after virus adsorption, the cells were treated with antiviral compounds or solvent control (DMSO). Infections were performed in biological quadruplicates, or as indicated for individual experiments. The cells were fixed by the addition of 150 µL 10% formalin/well 7 d p.i. (Merlin-GFP 14 d p.i.), and washed with PBS. For GFP or YFP quantitation, the Victor X4 microplate reader (PerkinElmer, Waltham, MA, USA) was primarily used, or as a very sensitive alternative, the ImageXpress® Pico device (Molecular Devices LLC, San Jose, CA, USA). Mean EC50 values of antiviral efficacy were calculated on the basis of three experimental replicates or as indicated (measurement of fluorescence values in quadruplicate), and percentage values were provided relative to the solvent control (DMSO).

Data set [3] relates to HCMV core NEC pUL50-pUL53. In words: Nuclear rim localization of viral core NEC pUL50-pUL53 (IF, confocal imaging). The settings on record: 0.5 µM MBV, 5 nM CCT, 2 nM MSC, 0.7 nM BI; HFFs, AD169-UL50-HA MOI 0.05, 7 d p.i. Format: cell-based, human cytomegalovirus. The method, then: In order to investigate viral protein expression and localization, 3 × 10^5 HFFs were seeded in 6-well plates one day prior to infection with HCMV AD169-UL50-HA (MOI 0.05). After 90 min of viral absorption, cells were treated with 0.5 µM MBV, 5 nM CCT, 2 nM MSC or 0.7 nM BI-1347. The infected cells were fixed at 7 d p.i., before indirect immunofluorescence staining was performed for viral IE1, pUL50, and pUL53, and signals were evaluated by confocal laser-scanning microscopy (Leica Microsystems, TCS SP5, Wetzlar, Germany). The counterstaining of the nuclei was performed with DAPI.

The mark [4] stands for this setting: mock-infected HFFs, Neutral Red assay, mean ± SD.

Read-outs that look alike come from different tables or passages of the source. Where only a bound is given, the exact number is not on record here.

As for `CC(C)c1cnn2c(NCc3ccccc3-n3cccn3)nc(OC3CCCNC3)nc12` (stereo not drawn) [LDC4297], the EC50 in the data set on HCMV AD169-GFP [1] is 9 ± 2 nM. In addition, the CC50 in the data set on mock-infected HFFs was > 10000 nM.

Take `CC(C)Nc1nc2cc(Cl)c(Cl)cc2n1[C@H]1O[C@@H](CO)[C@H](O)[C@@H]1O` [MBV, maribavir]: in the data set on HCMV AD169-GFP [2], the “SI (selectivity index)” value was >250. Further, the “nuclear rim localization of core NEC pUL50-pUL53” value in data set [3] is reported as “clear disruption of the smooth rim”. The EC50 with HCMV AD169-GFP [1] is 350 ± 420 nM. Further, in the data set on mock-infected HFFs (setting [4]), the CC50 is > 100000 nM.

Consider `Cc1c(Br)c(Br)c2c3c1nc(N1CCNCC1)n3CCC2` [SEL120], for which the “SI (selectivity index)” value with HCMV AD169-GFP [2] amounted to 75. Moreover, in the data set on HCMV AD169-GFP [1], the EC50 was 79 ± 1 nM. Moreover, the CC50 with mock-infected HFFs (setting [4]) was 5900 ± 3850 nM.
